Usually Kd stands for the equilibrium constant for the complex coming apart.

Data on 8 molecules can be found in PMC10539329, “NLRP6 potentiates PI3K/AKT signalling by promoting autophagic degradation of p85α to drive tumorigenesis” (Nature Communications, 2023).

One experiment deals with p85α in LN229 cells. In words: NLRP6-induced p85α degradation with pathway inhibitors, immunoblot, LN229. The note with it: LN229 cells transfected with Flag-NLRP6, immunoblot. Type of experiment: cell-based, Human. Here is the method: (§1) For coimmunoprecipitation, cell lysate was collected and incubated with the indicated antibody at 4 °C overnight followed by incubation with Protein A/G beads (Pierce, IL, USA) at 4 °C for 2 h. The unbound proteins were washed away with lysis buffer. The precipitated proteins were separated from the beads. To detect protein expression in frozen tissues or cells, total protein was extracted using RIPA lysis buffer (Beyotime, Shanghai, China) supplemented with protease and phosphatase inhibitors (Beyotime, Shanghai, China). The protein concentration was determined using a BCA protein quantification kit (Beyotime, Shanghai, China) or BCA Protein Assay Kit (BEB, Nanjing, China). The proteins were separated by SDS–PAGE, transferred to polyvinylidene fluoride (PVDF) membranes (Bio–Rad, CA, USA), and incubated with the indicated antibodies. The bands were detected with the ECL Advanced Western blot Detection Kit (Thermo Fisher Scientific, MA, USA) or Super ECL Chemiluminescent Substrate Kit (BEB, Nanjing, China) on a ChemiDoc Touch System (Bio–Rad, CA, USA) or Tanon 4600 (Tanon, Shanghai, China). The band intensities were quantified using Image Lab software (Bio–Rad, CA, USA) or ImageJ software (National Institutes of Health, MD, USA).

The next experiment concerns AKT. The note with it: cited from earlier work. As for the experimental part:
To investigate whether NLRs could regulate PI3K/AKT pathway, the FOXO luciferase reporter assay was performed to detect the transcriptional activity of FOXO, which is one of the best characterized targets of PI3K/AKT pathway. Two independent oligonucleotides targeting each of 22 human NLRs were mixed and transfected into LN229 cells. The nontargeting oligonucleotides served as a negative control. The knockdown efficiency targeting each NLR was confirmed by qRT-PCR (Supplementary Fig. 1a). […] Thus, interrupting the interaction between NLRP6 and p85α appears to be an attractive strategy to inhibit tumour growth. α-Helices are the fundamental recognition elements in protein-protein interactions and may serve as ideal inhibitors of macromolecular interactions. According to the observations that the SR domain (amino acids 1–301) on p85α interacted with the NOD domain (amino acids 1 ...

The test system of experiment [1] is PI3K/AKT pathway. Kind of experiment: PI3K/AKT activation by NLRP6 overexpression with MK-2206. The class given is cell-based. As for the experimental part: as §1
A further experiment deals with T1, recombinant NLRP6 (Homo sapiens, UniProt P59044).
T1 construct: DNA encoding full-length NLRP6 was codon optimized; His (N); MBP (N); made in house; host or cells: E. coli (DE3)
T1 sequence (P59044 1-892): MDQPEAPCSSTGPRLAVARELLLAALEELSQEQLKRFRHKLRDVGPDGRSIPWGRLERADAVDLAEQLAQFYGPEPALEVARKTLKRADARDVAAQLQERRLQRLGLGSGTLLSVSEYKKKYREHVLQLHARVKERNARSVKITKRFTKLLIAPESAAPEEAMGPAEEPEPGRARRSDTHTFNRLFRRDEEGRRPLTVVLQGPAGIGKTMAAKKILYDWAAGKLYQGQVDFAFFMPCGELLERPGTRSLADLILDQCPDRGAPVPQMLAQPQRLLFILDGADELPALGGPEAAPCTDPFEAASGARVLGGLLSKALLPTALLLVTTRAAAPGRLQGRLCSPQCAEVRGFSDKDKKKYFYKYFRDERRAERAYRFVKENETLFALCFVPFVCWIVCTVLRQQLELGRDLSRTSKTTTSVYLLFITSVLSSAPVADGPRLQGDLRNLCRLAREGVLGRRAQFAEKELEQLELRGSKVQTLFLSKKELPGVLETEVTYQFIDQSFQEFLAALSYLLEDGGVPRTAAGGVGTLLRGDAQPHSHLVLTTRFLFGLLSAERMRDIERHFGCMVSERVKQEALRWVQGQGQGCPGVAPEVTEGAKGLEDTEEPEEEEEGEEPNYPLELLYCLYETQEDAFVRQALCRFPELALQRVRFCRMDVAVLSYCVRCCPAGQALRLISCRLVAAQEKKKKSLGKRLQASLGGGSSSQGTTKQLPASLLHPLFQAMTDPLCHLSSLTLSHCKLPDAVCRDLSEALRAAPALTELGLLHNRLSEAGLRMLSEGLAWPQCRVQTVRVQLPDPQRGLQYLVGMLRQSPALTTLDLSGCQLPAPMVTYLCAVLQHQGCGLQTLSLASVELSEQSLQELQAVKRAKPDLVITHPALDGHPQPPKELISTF
In words: Biolayer interferometry (BLI) binding of peptides to recombinant NLRP6. The note with it: Octet Red 96, biotin-NLRP6 on streptavidin biosensors, 30 °C, PBS with 0.01% Tween-20, global 1:1 fitting, printed in picture Fig. 6b, representative of three independent experiments. Here is the method: DNA encoding full-length NLRP6 was codon optimized and chemically synthesized by Genewiz (Soochow, China). The DNA sequence was subcloned into NdeI-XhoI sites of a pDB-His-MBP vector (kindly given by Pro. Chenggui Han, China Agricultural University, Beijing, China). Recombinant NLRP6 protein was expressed and purified following previous reports, with slight modifications. Briefly, the protein was expressed in E. coli (DE3) at 16 °C with 0.5 mM IPTG induction overnight. Then, the protein was purified by Ni affinity and gel filtration chromatography. The p85α WT and p85α mutant sequences were chemically synthesized and subcloned into BamHI-XhoI sites of a pGEX-6P-1 plasmid by GenScript (Nanjing, China). The E. coli (DE3) transformed with the plasmids were grown in LB medium at 37 °C. The culture medium was supplemented with 0.5 mM IPTG followed by incubation at 16 °C for 16–18 h. […] The protein extinction coefficient was calculated by ProtParam, and the protein concentration was determined by the ultraviolet spectrophotometry method.
Eleven α-helical peptides were synthesized (Supplementary Data 7). […] The interaction between the peptides and NLRP6 was determined by BLI using an Octet Red 96 instrument (FortéBio, CA, USA). […] Responses (nanometre shift) were calculated using data that were double reference subtracted using reference wells and nonspecific binding of the biosensor to the analyte. […]
Background: BLI is a label-free optical method that tracks binding on a fibre tip over time.

The test system of experiment [2] is PI3K/AKT pathway. In words: Immunoblot of PI3K/AKT pathway with Pep9 and SC-79. Type of experiment: cell-based. Here is the method: as §1
A general note: In western blotting, separated proteins are transferred to a membrane and probed.

Another experiment deals with purified NLRP6. Kind of experiment: ELISA, binding of HRP-conjugated peptide to purified NLRP6. The note with it: ELISA, 1 h. Here is the method: DNA encoding full-length NLRP6 was codon optimized and chemically synthesized by Genewiz (Soochow, China). The DNA sequence was subcloned into NdeI-XhoI sites of a pDB-His-MBP vector (kindly given by Pro. Chenggui Han, China Agricultural University, Beijing, China). Recombinant NLRP6 protein was expressed and purified following previous reports, with slight modifications. Briefly, the protein was expressed in E. coli (DE3) at 16 °C with 0.5 mM IPTG induction overnight. Then, the protein was purified by Ni affinity and gel filtration chromatography. The p85α WT and p85α mutant sequences were chemically synthesized and subcloned into BamHI-XhoI sites of a pGEX-6P-1 plasmid by GenScript (Nanjing, China). The E. coli (DE3) transformed with the plasmids were grown in LB medium at 37 °C. The culture medium was supplemented with 0.5 mM IPTG followed by incubation at 16 °C for 16–18 h. The proteins were purified by glutathione-affinity chromatography (Smart-Life Sciences, Changzhou, China) followed by gel filtration chromatography (Cytiva, MA, USA) using PBS. The protein extinction coefficient was calculated by ProtParam, and the protein concentration was determined by the ultraviolet spectrophotometry method.
The 96-well plate was coated with bovine serum albumin (BSA) or purified NLRP6. HRP-conjugated PepC or HRP-conjugated Pep9 was incubated with BSA or NLRP6 for 1 h, and the unbound peptide was washed away. The HRP substrate was added, and the absorbance was detected at 450 nm. For the competitive ELISA, the 96-well plate was coated with purified p85α. The binding of NLRP6 to p85α competed with 10 μM PepC or 5 μM, 10 μM, 20 μM Pep9 for 1 h.
In general terms: ELISA stands for enzyme-linked immunosorbent assay.

Peptide text beside a SMILES is read from it.

As for `Cn1cnc(N)c2ncnc1-2` [3-methyladenine (3-MA), 3-methyladenine], the “NLRP6-induced p85α degradation (in words)” value with p85α in LN229 cells is reported as “attenuated NLRP6-induced p85α degradation”.

With `NC1(c2ccc(-c3nc4ccn5c(=O)[nH]nc5c4cc3-c3ccccc3)cc2)CCC1` [MK-2206], in the experiment on AKT, the “AKT inhibition (in words)” value was “highly potent and selective allosteric AKT inhibitor”. Moreover, the “PI3K/AKT activation by NLRP6 overexpression (in words)” value with PI3K/AKT pathway [1] is “NLRP6 overexpression could not activate PI3K/AKT pathway anymore when MK-2206 was introduced”. For the molecule `Cl.N` [NH4Cl], the “NLRP6-induced p85α degradation (in words)” value with p85α in LN229 cells is “attenuated NLRP6-induced p85α degradation”. For `CC(C)C[C@H](NC(=O)[C@H](CC(N)=O)NC(=O)[C@H](CCCCN)NC(=O)[C@H](CO)NC(=O)[C@H](CO)NC(=O)[C@@H](NC(=O)[C@H](CCC(N)=O)NC(=O)[C@H](CO)NC(=O)[C@H](CC(C)C)NC(=O)[C@H](CCCCN)NC(=O)[C@H](Cc1ccccc1)NC(=O)[C@H](Cc1ccccc1)NC(=O)[C@H](Cc1c[nH]cn1)NC(=O)[C@H](CCCCN)NC(=O)[C@H](CC(C)C)NC(=O)[C@H](CC(C)C)NC(=O)[C@H](Cc1ccc(O)cc1)NC(=O)[C@H](CCC(N)=O)NC(=O)[C@H](CC(C)C)NC(=O)[C@@H](NC(=O)[C@H](CC(C)C)NC(=O)[C@H](Cc1c[nH]c2ccccc12)NC(=O)[C@H](Cc1ccc(O)cc1)NC(=O)[C@H](CCC(N)=O)NC(=O)[C@H](Cc1c[nH]cn1)NC(=O)[C@@H]1CCCN1)[C@@H](C)O)[C@@H](C)O)C(=O)O` [Pep9] (H-PHQYWLTLQYLLKHFFKLSQTSSKNL-OH), the Kd at recombinant NLRP6 was found to be 9 µM. In the case of `CCOC(=O)C1=C(N)Oc2ccc(Cl)cc2C1C(C#N)C(=O)OCC` (stereo not shown) [SC-79], the “AKT binding and activation (in words)” value in the experiment with AKT (cytosol) is “specifically binds to the PH domain of AKT and activates AKT in the cytosol”. For the same molecule, the “effect of SC-79 on Pep9 inhibition of PI3K/AKT pathway (in words)” value in the experiment with PI3K/AKT pathway [2] is “The inhibition of Pep9 on PI3K/AKT pathway was reversed when SC79 was added”. In the case of `CO/C1=C\C(C)=C\[C@@H](C)[C@@H](O)[C@@H](C)C/C(C)=C/C=C/[C@H](OC)[C@@H]([C@@H](C)[C@@H](O)[C@H](C)[C@@]2(O)C[C@@H](O)[C@H](C)[C@@H](C(C)C)O2)OC1=O` [bafilomycin A1 (BafA1), bafilomycin A1], the “NLRP6-induced p85α degradation (in words)” value in the experiment with p85α in LN229 cells is on record as “attenuated NLRP6-induced p85α degradation”. Same read-out and setting: the entry for `CCN(CC)CCCC(C)Nc1ccnc2cc(Cl)ccc12` (stereo not shown) [chloroquine (CQ), chloroquine] is “attenuated NLRP6-induced p85α degradation”.

B1: HRP-conjugated Pep9: Horseradish peroxidase (HRP)-conjugated Pep9 (conjugate)
peptide: EADVEQQALTLPDLAEQFAPPDIAPPLLIKLVEAIEKKGLECSTLYRTQSSSNLAELRQLLDCDTPSVDLEMIDVHVLADAFKRYLLDLPNPVIPAAVYSEMISLAPEVQSSEEYIQLLKKLIRSPSIPHQYWLTLQYLLKHFFKLSQTSSKNLLNARVLSEIFSPMLFRFSAASSDNTENLIKVIEILISTEWNERQPAPALPPKPPKPTTVAN
modifications: left off: HRP, end not stated, kept
With B1, the “binding of HRP-conjugated peptide to NLRP6 (in words)” value in the experiment with purified NLRP6 was “could bind to NLRP6”.
